Experimental data: paper PMC11859423, “Fluorescent Probes to Image the KCa3.1 Channel in Tumor Cells” (Pharmaceutics, 2025)

Assay: logD7.4 by micro shake flask method (n-octanol / MOPS buffer pH 7.4, LC-MS)
Assay type: physicochemical
Conditions: read-out: logD7.4 ± SD (Micro Shake Flask)
Procedure: The logD7.4 values were recorded using the micro shake flask method. In this method, the test compound is distributed between n-octanol and MOPS buffer pH 7.4, and the amount of the compound in the buffer layer is determined by mass spectrometry.
The new fluorescent dyes were designed to increase the polarity and reduce the non-specific labeling of lipophilic membranes of cells. Moreover, a higher polarity should lead to increased water solubility and thus improved handling of the dyes. The logD7.4 value was recorded as a measure of the polarity/lipophilicity using our recently published micro-shake flask method. According to this method, the amount of compound in the aqueous 3-morpholinopropanesulfonic acid (MOPS) buffer pH 7.4 was determined by LC-MS [31, 32].

CCC1=C(C)C2=C(c3ccc(OCCOCCn4cc(COc5ccc(C(C(N)=O)(c6ccccc6)c6ccc(F)cc6)cc5)nn4)cc3)c3c(C)c(CC)c(C)n3[B-](F)(OC)[N+]2=C1C (stereo not shown) [10b, 2-{4-[(1-{2-[4-(2,6-Diethyl-4-fluoro-4-methoxy-1,3,5,7-tetramethyl-4-bora-3a,4a-diaza-s-indacen-8-yl)phenoxy]ethoxyethyl}-1,2,3-triazol-4-yl)methoxy]phenyl}-2-(4-flluorophenyl)-2-phenylacetamide]
logD: > 5
